{"source": "paper PMC12935919", "about": "(Frontiers in Pharmacology, 2026)", "tested_on": "C2C12 cells", "assay": "Myotube morphology during differentiation (microscopy, ImageJ)", "format": "cell-based", "procedure": "To induce C2C12 myotube differentiation, myoblasts were seeded in 6-well plates at 5 × 10^5 cells per well. Once reaching 90% confluency, they were cultured in DMEM supplemented with 2% horse serum (Thermo Fisher Scientific) and 1% penicillin-streptomycin. […] Differentiation was observed using an optical microscope (LEICA, 100×). Myotube morphology (length and diameter) was quantified in ImageJ (NIH) using the same images: myotube length was measured by tracing the long axis of each myotube (end-to-end), and myotube diameter was measured as the short-axis width at three positions along each myotube; the mean of the three width values was recorded as the diameter. For each experimental group, three randomly captured images (fields) were analyzed, and at least 15–20 myotubes per image were quantified under identical imaging settings.", "note": "No end group written: not given here."}
{"substance": "EAEYEHL-OH [Myoki]", "values": [{"measurement": "increase in myotube length compared to the control", "setting": "Day 6, 100 μM, differentiation medium (2% horse serum), mean ± SD", "result": "200% ± 33.88%"}, {"measurement": "myotube length", "setting": "Days 0-6, Myoki 1, 10 and 100 μM", "result": "increased concentration- and time-dependently"}]}
